# Reference: PubChem BioAssay (NCI)
# Values joined by “and” are separate entries in the source; they are usually repeats but may differ in a detail not shown here. Identical values can stand only once.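 Cultured in 96-well plates, cells were exposed to test compound for 48 hours across five concentrations. GI50: concentration for 50% inhibition of growth. TGI is the concentration that stops growth completely.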
# Experiments:
# Assay in all cases: NCI anticancer screen, dose series, 48 h
# OVCAR-8 ovarian = system: OVCAR-8 ovarian
# SR leukemia = system: SR leukemia
# OVCAR-5 ovarian = system: OVCAR-5 ovarian
# 786-0 renal = system: 786-0 renal
# OVCAR-4 ovarian = system: OVCAR-4 ovarian
# UACC-257 melanoma = system: UACC-257 melanoma
# DU-145 prostate = system: DU-145 prostate
# A549 NSCLC = system: A549 NSCLC
# SW-620 colon = system: SW-620 colon
# HL-60(TB) leukemia = system: HL-60(TB) leukemia
SMILES,GI50 (OVCAR-8 ovarian),TGI (OVCAR-8 ovarian),GI50 (SR leukemia),TGI (SR leukemia),GI50 (OVCAR-5 ovarian),TGI (OVCAR-5 ovarian),GI50 (786-0 renal),TGI (786-0 renal),GI50 (OVCAR-4 ovarian),TGI (OVCAR-4 ovarian),GI50 (UACC-257 melanoma),TGI (UACC-257 melanoma),GI50 (DU-145 prostate),TGI (DU-145 prostate),GI50 (A549 NSCLC),TGI (A549 NSCLC),GI50 (SW-620 colon),TGI (SW-620 colon),GI50 (HL-60(TB) leukemia),TGI (HL-60(TB) leukemia)
COc1cnc2c(c1)C(=O)c1c-2n(CCCNC2=NCCS2)c(=O)c2cc(F)ccc12,0.132 µM,4.72 µM,0.0499 µM,2.04 µM,0.795 µM,13.3 µM,0.271 µM,1.31 µM,0.463 µM,2.36 µM,0.456 µM,20.4 µM,0.144 µM,1.63 µM,0.155 µM,1.75 µM,0.12 µM,3.34 µM,0.381 µM,1.56 µM
CO[C@H]1C[C@@H]2CC[C@@H](C)[C@@](O)(O2)C(=O)C(=O)N2CCCC[C@H]2C(=O)O[C@H]([C@H](C)C[C@@H]2CC[C@@H](OC(=O)C(C)(CO)CO)[C@H](OC)C2)CC(=O)[C@H](C)/C=C(\C)[C@@H](O)[C@@H](OC)C(=O)[C@H](C)C[C@H](C)\C=C/C=C/C=C/1C,,> 10 µM,0.00251 µM,> 10 µM,> 6.89 µM,> 10 µM,0.0149 µM,> 10 µM,< 0.001 µM,> 10 µM,> 10 µM,> 10 µM,0.045 µM,> 10 µM,0.067 µM,> 10 µM,> 10 µM,> 10 µM,> 10 µM,> 10 µM
CCCCN(CCCC)C(=O)[C@H](CC)[C@@H]1CC[C@@H](C)[C@@H]([C@H](C)[C@@H](O)[C@@H](C)C(=O)[C@H](CC)C2O[C@]3(C=C[C@@H](O)[C@]4(CC[C@@](C)([C@H]5CC[C@](O)(CC)[C@H](C)O5)O4)O3)[C@H](C)C[C@@H]2C)O1 (stereo partly specified),3.43 µM,65.4 µM,2.89 µM,8.53 µM,1.9 µM,4.78 µM,2.49 µM,7.44 µM,2.85 µM,36 µM,2.9 µM,9.71 µM,2.61 µM,6.42 µM,3.12 µM,34.4 µM,2.75 µM,11.1 µM,2.35 µM,5.7 µM
CC(C)(C)c1cc(C(=O)Nc2ccccc2C(=O)NCCN)cc(C(C)(C)C)c1,2.08 µM,4.2 µM,1.94 µM,4.56 µM,1.78 µM,3.81 µM,1.75 µM,3.51 µM,1.89 µM,3.82 µM,1.9 µM,3.93 µM,1.84 µM,3.4 µM,2.11 µM,4.2 µM,1.87 µM,3.87 µM,2.15 µM,4.46 µM
O=C1NC(=NCc2ccccc2Cl)S/C1=C\c1ccc2ncccc2c1,> 25 µM,> 25 µM,1.04 µM,> 19.6 µM,> 25 µM,> 25 µM,16.3 µM,> 25 µM,14.7 µM,> 25 µM,> 25 µM,> 25 µM,11.2 µM,> 25 µM,8.5 µM,> 25 µM,6.61 µM,> 25 µM,10.1 µM,> 25 µM
N#CCn1c(=O)c(Oc2ccc(F)cc2F)cc2cnc(NC3CCOCC3)nc21,> 25 µM,> 25 µM,> 25 µM,> 25 µM,> 25 µM,> 25 µM,> 25 µM,> 25 µM,> 24 µM,> 25 µM,> 25 µM,> 25 µM,> 25 µM,> 25 µM,> 25 µM,> 25 µM,> 25 µM,> 25 µM,> 25 µM,> 25 µM
C=C1C[C@H]2C=Nc3cc(OCCCOc4cc5c(cc4OC)C(=O)N4CC(=C)C[C@H]4C=N5)c(OC)cc3C(=O)N2C1,,> 18.4 µM,,0.218 µM,0.0197 µM and < 0.0205 µM,,0.00125 µM,,< 0.012 µM,0.0191 µM,0.0213 µM,0.0421 µM and 0.0917 µM,0.00496 µM and < 0.0133 µM,24 µM,0.0135 µM,> 100 µM,0.0144 µM,> 85.2 µM,0.000245 µM,
Clc1nccc2c(-c3csc(-c4c[nH]c5ccc(Br)cc45)n3)c[nH]c12,3.65 µM,16.2 µM,1.27 µM,> 100 µM,3.14 µM,9.88 µM,1.37 µM,2.93 µM,3.25 µM,15.9 µM,2.68 µM,4.88 µM,1.76 µM,14 µM,3.83 µM,12.8 µM,1.92 µM,3.63 µM,2.64 µM,14.1 µM
O=C(Nc1ccc(Oc2ccc3nc(NC(=O)c4ccco4)[nH]c3c2)cc1)Nc1cc(C(F)(F)F)ccc1F,1.26 µM,6.92 µM,0.964 µM,7.36 µM,1.49 µM,8.63 µM,3.55 µM,10.4 µM,1.25 µM,> 13.8 µM,2.25 µM,8.74 µM,2.92 µM,10.6 µM,3.19 µM,11.8 µM,1.25 µM,> 17.8 µM,0.823 µM,7.07 µM
COc1ccc(C(O)c2cc3c(N)c(C(=O)Nc4ccc(Cl)cc4)sc3nc2C)cc1 (stereo unspecified),4.02 µM,26.7 µM,0.44 µM,> 100 µM,3.97 µM,25.5 µM,8.2 µM,31.8 µM,2.42 µM,7.47 µM,4.99 µM,57.5 µM,2.71 µM,7.66 µM,3.53 µM,14.9 µM,2.62 µM,37.6 µM,1.91 µM,9.63 µM
CC(=O)OCC1OC(n2c(=S)n(-c3ccc([N+](=O)[O-])cc3)c(=O)c3ccccc32)C(OC(C)=O)C(OC(C)=O)C1OC(C)=O (stereo unspecified),,63.5 µM and 47.6 µM,4.67 µM,> 100 µM,32.2 µM and > 100 µM,> 100 µM,17.9 µM,45.6 µM and 39 µM,,60.3 µM and 40.9 µM,13 µM and 28.3 µM,38.1 µM and 97.3 µM,,> 100 µM,23.1 µM and 32 µM,> 100 µM,18 µM and 30.4 µM,> 100 µM,4.13 µM and 25.2 µM,29.4 µM and 59.1 µM
